Test results taken from publication PMC6335172 (Acta Physiologica (Oxford, England), 2018).
Values joined by “and” are separate entries in the source; they are usually repeats but may differ in a detail not shown here. Equal values may be shown once. Read-outs that look alike come from different tables or passages of the source.

Assays:
[1] = biological target: wild type human I Ks channel (Kv7.1/KCNE1) (Homo sapiens, UniProt P51787); assay: Two-electrode voltage clamp of I Ks channel; format: cell-based; details: pH 9.0, mean ± SEM; for Max ΔV 0.5 (shift of voltage dependence of activation) / Max I/I 0 (relative increase in K+ current at 0 mV) / Max G max/G max0 (maximal conductance normalized to control): fitted maximum from dose response; for Max ΔV 0.5 (shift of voltage dependence of activation): G-V from tail currents
Chain of wild type human I Ks channel (Kv7.1/KCNE1) (P51787 whole entry): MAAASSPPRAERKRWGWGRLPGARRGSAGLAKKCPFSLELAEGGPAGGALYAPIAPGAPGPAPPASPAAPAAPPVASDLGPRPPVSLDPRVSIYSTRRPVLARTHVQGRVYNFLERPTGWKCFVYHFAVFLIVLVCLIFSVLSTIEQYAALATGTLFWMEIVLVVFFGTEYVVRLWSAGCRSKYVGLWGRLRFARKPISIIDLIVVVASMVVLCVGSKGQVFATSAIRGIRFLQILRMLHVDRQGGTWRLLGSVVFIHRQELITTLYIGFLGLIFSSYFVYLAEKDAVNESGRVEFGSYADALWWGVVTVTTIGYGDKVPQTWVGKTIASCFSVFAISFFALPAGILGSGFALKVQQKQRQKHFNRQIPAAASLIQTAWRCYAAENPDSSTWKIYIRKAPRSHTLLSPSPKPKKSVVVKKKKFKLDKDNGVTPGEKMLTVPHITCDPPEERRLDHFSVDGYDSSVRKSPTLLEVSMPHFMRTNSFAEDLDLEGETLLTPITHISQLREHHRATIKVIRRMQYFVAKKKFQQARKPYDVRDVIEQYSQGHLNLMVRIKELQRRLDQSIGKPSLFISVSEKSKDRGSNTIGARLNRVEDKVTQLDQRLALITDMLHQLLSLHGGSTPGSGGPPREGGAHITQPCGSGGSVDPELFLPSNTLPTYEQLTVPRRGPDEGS

[2] = test system: I Ks channel (coexpression of Kv7.1 and KCNE1); details: cited from earlier work; for Effect on the V 0.5 of the I Ks channel at pH 7.5: Kv7.1 co-expressed with KCNE1, pH 7.5
Kv7.1 channel = details: Kv7.1 without KCNE1; cited from earlier work
[3] = read-out: K m of ΔV 0.5, Hill fit of dose response
[4] = K m of ΔV 0.5, Hill fit of dose response

CCC=CCC=CCC=CCCCC(=O)O [14:3Δ5,8,11, Tetradecatrienoic acid (5,8,11)]
Max ΔV 0.5 (shift of voltage dependence of activation) [1]: 0.80 ± 6.5 mV | Max I/I 0 (relative increase in K+ current at 0 mV) [1]: 1.1 ± 0.15 | Max G max/G max0 (maximal conductance normalized to control) [1]: 0.84 ± 0.1

CCC=CCC=CCC=CCCCCCC(=O)O [16:3Δ7,10,13, Hexadecatrienoic acid (7,10,13)]
Max ΔV 0.5 (shift of voltage dependence of activation) [1]: −13.4 ± 0.6 mV | Max I/I 0 (relative increase in K+ current at 0 mV) [1]: 2.1 ± 0.02 | Max G max/G max0 (maximal conductance normalized to control) [1]: 0.9 ± 0.2 | EC50 [1, 3]: 7.2 ± 0.5 µM

CCCCC/C=C\C/C=C\CCCCCCCC(=O)O [18:2Δ9,12, Linoleic acid (9,12)]
Max ΔV 0.5 (shift of voltage dependence of activation) [1]: −29.8 ± 1.7 mV | Max I/I 0 (relative increase in K+ current at 0 mV) [1]: 3.6 ± 0.6 | Max G max/G max0 (maximal conductance normalized to control) [1]: 1.06 ± 0.02

CC/C=C\C/C=C\C/C=C\C/C=C\C/C=C\CCCC(=O)O [20:5Δ5,8,11,14,17, Eicosapentaenoic acid (5,8,11,14,17)]
EC50 [1, 4]: 9.8 ± 4.4 µM | Max ΔV 0.5 (shift of voltage dependence of activation) [1]: −25 ± 4.6 mV | Max I/I 0 (relative increase in K+ current at 0 mV) [1]: 2.4 ± 0.05 | Max G max/G max0 (maximal conductance normalized to control) [1]: 1.0 ± 0.1

CCC=CCC=CCC=CCC=CCC=CCCCCCC(=O)O [22:5Δ7,10,13,16,19, Docosapentaenoic acid (7,10,13,16,19)]
Max ΔV 0.5 (shift of voltage dependence of activation) [1]: −4 ± 0.13 mV | Max I/I 0 (relative increase in K+ current at 0 mV) [1]: 1.6 ± 0.05 | Max G max/G max0 (maximal conductance normalized to control) [1]: 1.2 ± 0.01 | EC50 ([1]; read-out: K m of G max, Hill fit of dose response): 1.2 ± 1.7 µM | EC50 [1, 3]: 11.1 ± 0.6 µM

CC/C=C\C/C=C\C/C=C\C/C=C\C/C=C\C/C=C\CCC(=O)O [22:6Δ4,7,10,13,16,19, Docosahexaenoic acid (4,7,10,13,16,19)]
EC50 ([1]; K m of G max, Hill fit of dose response): 1.8 µM | EC50 [1, 4]: 3.1 ± 0.1 µM | Max ΔV 0.5 (shift of voltage dependence of activation) [1]: −20.2 ± 0.1 mV | Max I/I 0 (relative increase in K+ current at 0 mV) [1]: 3.2 ± 0.1 and 3.2 ± 0.01 | Max G max/G max0 (maximal conductance normalized to control) [1]: 1.5 ± 0.2 | Effect on the V 0.5 of the I Ks channel at pH 7.5 [2]: no effect on the V 0.5 | Effect on K+ current when Kv7.1 is co-expressed with KCNE1, pH 7.5 ([2]; pH 7.5): abolished | Shift of the voltage dependence of activation (V 0.5) of the Kv7.1 channel (Kv7.1 channel): to more negative voltages

CCCCC/C=C\C/C=C\C/C=C\C/C=C\CCCC(=O)NCCS(=O)(=O)O [N‐AT, N‐arachidonoyl taurine]
Effect on the V 0.5 of the I Ks channel at pH 7.5 [2]: retain the ability to shift the voltage dependence
